Source: patent US20240268372A1, “Methods and Compositions for Extending Organ and Tissue Preservation” (The General Hospital Corporation, priority 2021, published 2024)

Tested on: rat livers
Assay: Partial freezing of rat livers with 12% glycerol with or without ice modulators, SNMP recovery
Text: Experimental design: FIG. 39 outlines the rat liver partial freezing protocol in eight consecutive steps: (1) liver procurement, (2) preconditioning during SNMP, (3) CPA preloading during hypothermic machine perfusion (HMP), (4) loading of final storage solution and ice modulators during HMP, (5) partial freezing of rat liver, (6) thawing of rat liver, (7) unloading of CPAs during HMP, and (8) functional recovery of frozen rat livers during SNMP.
Within this protocol, we first compared partially frozen livers at −10° C. (n=4 livers) and −15° C. (n=9 livers) with 12% glycerol. Upon finding minimal differences between these two groups, we combined them as a control and compared them to livers partially frozen with 0.5 mg/ml (0.05% w/v) of AFGP (n=4 livers) or 0.1% X-1000/0.2% Z-1000 (total, 0.3% w/v; n=4 livers) ice modulating agents added to the preservation solution. After freezing, liver viability on SNMP was compared between the 12% glycerol control group and the two ice modulated groups.
Partial freezing protocol: The rat liver perfusion system involved perfusion through the cannulated portal vein (PV) with regulation of pressure, flow, and temperature. Detailed set-up of the perfusion system has been previously described (see, e.g., ref. 34). The total rat hepatectomy protocol was approved by the Institutional Animal Care and Use Committee (IACUC) of Massachusetts General Hospital (Boston, MA). Livers were procured from male Lewis rats (250-300 g, age 10-12 weeks. Charles River Laboratories, Wilmington, MA) (FIG. 39, step 1). The bile duct was isolated and cannulated, and the rats were heparinized with 30U sodium heparin. PV splenic and gastric branches, as well as the hepatic artery were ligated prior to cannulation. The PV was subsequently cannulated with a 16-gauge catheter and immediately flushed with 40 ml of heparinized saline (1000U/ml at room temperature). The liver was then freed from all peritoneal attachments, flushed with an additional 20 ml of heparinized saline. After procurement, the liver was weighed, and machine perfusion was immediately initiated.
Preconditioning during SNMP was initiated at 21° C. with a flow rate of 5 ml/min (FIG. 39, step 2). […] The rat livers were perfused for 1 hour with 500 ml of preconditioning solution including Williams E, 200 U/l of insulin, 2% w/v PEG, 50 g/L BSA, 100 mM 3-O-methylglucose (3-OMG), 10,000 U/l of heparin, 24 mg/L of dexamethasone, 25 mg/ml of hydrocortisone, 40,000 μg/l of penicillin, and 40,000 U/l of streptomycin and sodium bicarbonate as needed to maintain a physiological pH (see Table 9 for composition of all solutions).
After 1 hour of preconditioning during SNMP, the temperature was decreased to 4° C. at a rate of ˜1° C./min. Flow rates were gradually adjusted as necessary to ensure a maximum perfusion pressure of 3-5 mmHg during HMP. The SNMP preconditioning solution was switched to 500 ml CPA preloading solution at 4° C. (including Williams E, 200 U/l of insulin, 2% PEG, 50 g/L BSA, 100 mM 3-OMG, 30 mM raffinose, 3% hydroxyethyl starch (HES), 6% glycerol, 4000 U/l of heparin, 24 mg/l of dexamethasone, 25 mg/ml of hydrocortisone, 40,000 μg/l of penicillin, 40,000 U/l of streptomycin, and sodium bicarbonate as needed to maintain a physiological pH) (FIG. 39, step 3; Table 9). HMP was continued for 1 hour to ensure complete equilibration of solution throughout the liver parenchyma. […]

[1] = after SNMP recovery, pooled 1 and 5 days

## OCC(O)CO [GLY, glycerol]
12% glycerol only, pooled 1 and 5 days, at time zero
  mean perfusate lactate: 1.17 ± 0.61 mmol/L
12% glycerol, pooled 1 and 5 days
  function of livers frozen at −10° C. vs −15° C. (perfusion metrics, weight gain, ATP, EC): not functionally different
After 1 and 5 day partial freezing
  H&E staining of liver parenchyma: sinusoidal damage and compression, peri-portal endothelial destruction
After 1 and 5 days of frozen storage
  TUNEL staining: remarkably less TUNEL staining
[1]
  mean ATP: 0.187 ± 0.075 µg/mL
  mean energy charge (EC), (ATP+1/2ADP)/(ATP+ADP+AMP): 0.066±0.032
End of SNMP recovery vs weight after procurement, pooled 1 and 5 days
  final mean weight gain: 26.9±15.3%
Pooled 1 and 5 days, at 0 hours
  mean vascular resistance: 0.528±0.39 mmHg/ml/min
Pooled 1 and 5 days, at 1 hour
  mean perfusate potassium: 6.5 ± 1.01 mmol/L
